Source: PMC7680126, “Structural asymmetry governs the assembly and GTPase activity of McrBC restriction complexes” (Nature Communications, 2020)

Legend:
TgMcrBC complex = target: T1, TgMcrBC complex (Thermococcus gammatolerans, UniProt C5A3Z3); test: malachite green phosphate release; assay type: biochemical; conditions: 1 mM GTP, 0.1 μM TgMcrC, 65 °C, pH 8.0, 150 mM KCl, 5 mM MgCl2
T1 construct: gene TGAM_0453; full-length McrB (1-613) and McrC (1-458); tags cut by HRV 3C (Gly-Pro left); E. coli; with McrC, endonuclease subunit of McrBC restriction complex (5-methylcytosine restriction system component McrC)
T1 sequence (C5A3Z3 1-613): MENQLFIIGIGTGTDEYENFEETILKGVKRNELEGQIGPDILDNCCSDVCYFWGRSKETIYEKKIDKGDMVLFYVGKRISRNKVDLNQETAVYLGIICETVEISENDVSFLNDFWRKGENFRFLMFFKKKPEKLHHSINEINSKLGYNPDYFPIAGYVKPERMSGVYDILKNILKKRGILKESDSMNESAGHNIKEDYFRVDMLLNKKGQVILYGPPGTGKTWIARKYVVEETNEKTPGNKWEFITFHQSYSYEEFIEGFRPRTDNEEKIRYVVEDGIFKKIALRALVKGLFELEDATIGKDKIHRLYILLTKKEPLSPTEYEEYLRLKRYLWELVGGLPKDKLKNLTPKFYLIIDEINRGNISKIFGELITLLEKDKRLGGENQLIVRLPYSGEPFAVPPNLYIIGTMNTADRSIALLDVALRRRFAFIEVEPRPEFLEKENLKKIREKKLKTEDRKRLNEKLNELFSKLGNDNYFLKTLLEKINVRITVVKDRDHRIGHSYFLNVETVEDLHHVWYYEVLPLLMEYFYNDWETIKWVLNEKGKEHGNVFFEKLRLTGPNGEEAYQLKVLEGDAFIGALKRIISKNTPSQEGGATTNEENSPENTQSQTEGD
T1 sequence (C5A3Z2 1-458 partner): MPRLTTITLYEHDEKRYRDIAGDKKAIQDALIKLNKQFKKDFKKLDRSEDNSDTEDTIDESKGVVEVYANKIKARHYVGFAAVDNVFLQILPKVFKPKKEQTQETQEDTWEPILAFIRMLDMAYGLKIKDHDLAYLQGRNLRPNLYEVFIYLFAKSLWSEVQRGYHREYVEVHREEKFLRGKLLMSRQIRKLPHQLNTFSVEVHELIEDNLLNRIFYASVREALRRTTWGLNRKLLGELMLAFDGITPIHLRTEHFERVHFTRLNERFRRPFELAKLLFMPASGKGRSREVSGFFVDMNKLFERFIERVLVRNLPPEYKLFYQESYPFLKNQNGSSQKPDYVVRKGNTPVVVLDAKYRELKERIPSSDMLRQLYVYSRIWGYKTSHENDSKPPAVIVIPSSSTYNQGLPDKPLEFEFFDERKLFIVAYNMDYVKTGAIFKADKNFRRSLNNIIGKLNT

TgMcrB (full-length) = target: T2, TgMcrB (full-length) (Thermococcus gammatolerans, UniProt C5A3Z3); test: malachite green phosphate release; assay type: biochemical; conditions: 1 mM GTP, 65 °C, pH 8.0, 150 mM KCl, 5 mM MgCl2; no McrC
T2 construct: gene TGAM_0453; full-length, residues 1-613; 6xHis tag cut by HRV 3C (Gly-Pro left); E. coli BL21(DE3); hexamer

## Nc1nc2c(ncn2[C@@H]2O[C@H](COP(=O)(O)OP(=O)(O)OP(=O)(O)O)[C@@H](O)[C@H]2O)c(=O)[nH]1 [GTP]
TgMcrBC complex
  McrC-stimulated GTPase activity: Purified TgMcrC similarly stimulates TgMcrB’s basal GTPase activity
TgMcrB (full-length)
  basal GTPase activity: Alanine substitutions at Asn410 and Asp413 in full-length TgMcrB abolish both basal and McrC-stimulated GTPase activity
